Data taken from article PMC11174011, “In Vitro and Molecular Docking Evaluation of the Anticholinesterase and Antidiabetic Effects of Compounds from Terminalia macroptera Guill. & Perr. (Combretaceae)” (Molecules, 2024).
Read-outs that look alike come from different tables or passages of the source.

Columns and labels:
[1] = target: T1, α-amylase (porcine pancreas source) (Sus scrofa, UniProt P00690); experiment: α-Amylase inhibitory assay (starch iodine protocol); format: biochemical
T1 construct: A porcine pancreas source of α-amylase (50 µL), 25 µL of the samples; from tissue; host or cells: porcine pancreas
T1 sequence (P00690 16-511): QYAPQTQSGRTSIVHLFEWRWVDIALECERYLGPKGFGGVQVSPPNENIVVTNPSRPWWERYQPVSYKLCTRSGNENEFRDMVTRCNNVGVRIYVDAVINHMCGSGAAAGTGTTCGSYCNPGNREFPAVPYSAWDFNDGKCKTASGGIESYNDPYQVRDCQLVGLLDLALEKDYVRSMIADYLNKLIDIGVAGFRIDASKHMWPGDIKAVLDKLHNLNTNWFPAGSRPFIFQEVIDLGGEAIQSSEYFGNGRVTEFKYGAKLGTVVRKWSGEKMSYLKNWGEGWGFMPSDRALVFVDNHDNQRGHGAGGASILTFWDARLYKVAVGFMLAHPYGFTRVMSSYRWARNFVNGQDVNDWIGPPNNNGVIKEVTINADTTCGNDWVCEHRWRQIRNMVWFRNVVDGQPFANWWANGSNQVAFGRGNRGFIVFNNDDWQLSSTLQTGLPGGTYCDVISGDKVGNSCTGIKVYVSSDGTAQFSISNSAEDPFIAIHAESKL
Procedure: In the α-amylase inhibition assay, the starch iodine protocol was used with few changes [62, 63]. A porcine pancreas source of α-amylase (50 µL), 25 µL of the samples, 6 mM NaCl, and phosphate buffer (pH 6.9) solution were mixed in a 96-well microplate and incubated at 37 °C for 10 min. Then, 50 µL of 0.05% starch solution was added to the reaction mixture and further incubated under the same conditions, after which Lugol (100 µL) and HCl (0.1 M, 25 µL) solutions were added to complete the reaction.

[2] = target: BChE (horse serum source) (Equus caballus, UniProt P81908); experiment: biochemical
Sequence of BChE (horse serum source) (P81908 whole entry): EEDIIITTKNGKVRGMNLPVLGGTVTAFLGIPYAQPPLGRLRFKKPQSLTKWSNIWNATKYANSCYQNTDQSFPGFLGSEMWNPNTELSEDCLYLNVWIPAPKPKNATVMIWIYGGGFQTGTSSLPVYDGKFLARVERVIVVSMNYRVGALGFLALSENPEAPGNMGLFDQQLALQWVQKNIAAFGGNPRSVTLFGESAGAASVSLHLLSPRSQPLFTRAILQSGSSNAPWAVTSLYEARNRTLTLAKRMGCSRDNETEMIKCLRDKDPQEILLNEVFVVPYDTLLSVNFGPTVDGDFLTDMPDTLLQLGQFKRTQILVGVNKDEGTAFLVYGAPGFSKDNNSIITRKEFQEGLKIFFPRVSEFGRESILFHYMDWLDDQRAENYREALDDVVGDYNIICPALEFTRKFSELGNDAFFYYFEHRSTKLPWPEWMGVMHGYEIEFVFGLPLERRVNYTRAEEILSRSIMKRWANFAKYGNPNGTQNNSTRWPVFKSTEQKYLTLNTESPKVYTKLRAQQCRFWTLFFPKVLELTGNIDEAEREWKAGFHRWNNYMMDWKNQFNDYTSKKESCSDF
Source text: A standard spectrophotometric method was used to measure the anticholinesterase activity using both the butyrylcholinesterase (BChE) and acetylcholinesterase (AChE) enzymes, as described elsewhere but with slight modifications [59, 60]. […] The substrates used in the AChE and BChE assays were acetylthiocholine iodide and butyrylthiocholine chloride, respectively. DTNB (5,5′-Dithio-bis(2-nitrobenzoic) acid) was used for monitoring the cholinesterase activity.

[3] = target: α-glucosidase (fungal source from Saccharomyces cerevisiae); experiment: α-Glucosidase inhibitory assay (PNPG); format: biochemical; set-up: IC50 ± SEM (α-glucosidase): unit not given beside the values; details: for IC50 ± SEM (α-glucosidase): Table 2, repeats Table 1, unit not given; for α-Glucosidase IC50: maximum concentration 200 µg/mL, means ± SEM of three measurements
[4] = target: AChE (electric eel source) (Electrophorus electricus, UniProt O42275); experiment: biochemical
Sequence of AChE (electric eel source) (O42275 24-633): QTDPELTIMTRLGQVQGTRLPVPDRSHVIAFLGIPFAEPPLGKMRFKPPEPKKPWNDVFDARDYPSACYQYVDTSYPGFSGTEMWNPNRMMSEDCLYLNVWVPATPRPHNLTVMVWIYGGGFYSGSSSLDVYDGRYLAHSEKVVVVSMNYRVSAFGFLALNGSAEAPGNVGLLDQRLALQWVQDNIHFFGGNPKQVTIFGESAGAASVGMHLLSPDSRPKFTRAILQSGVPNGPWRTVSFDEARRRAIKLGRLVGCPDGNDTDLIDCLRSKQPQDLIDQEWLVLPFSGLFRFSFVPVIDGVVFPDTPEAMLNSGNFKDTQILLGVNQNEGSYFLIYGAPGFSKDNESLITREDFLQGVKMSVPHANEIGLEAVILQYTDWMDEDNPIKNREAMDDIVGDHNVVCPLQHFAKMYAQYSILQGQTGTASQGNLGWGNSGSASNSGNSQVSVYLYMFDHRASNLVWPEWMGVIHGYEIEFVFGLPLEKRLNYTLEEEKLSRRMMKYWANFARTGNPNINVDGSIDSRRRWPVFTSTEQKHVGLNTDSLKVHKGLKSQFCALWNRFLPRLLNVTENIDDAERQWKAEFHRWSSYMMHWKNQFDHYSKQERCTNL

[5] = Table 3, repeats Table 1, unit inferred, read-out: IC50 ± SEM (Butyrylcholinesterase)
[6] = evaluated up to 100 µg/mL, means ± SEM of three measurements, read-out: BChE IC50 (converted)
[7] = evaluated up to 100 µg/mL, means ± SEM of three measurements, read-out: AChE IC50 (converted)
[8] = read-out: IC50 ± SEM (α-amylase), Table 2, repeats Table 1, unit inferred
[9] = Table 3, repeats Table 1, unit inferred, read-out: IC50 ± SEM (Acetylcholinesterase)

CC1(C)CC[C@]2(C(=O)O)CC[C@]3(C)C(=CC[C@@H]4[C@@]5(C)C[C@@H](O)[C@H](O)[C@@](C)(CO)[C@@H]5[C@H](O)C[C@]43C)[C@@H]2C1 [Compound 8, terminolic acid]
IC50 [1]: 289 µM | IC50 [2, 5]: > 198 µM | IC50 [2, 6]: > 198 µM | IC50 ± SEM (α-glucosidase) [3]: 155.84 ± 0.31 | α-Glucosidase IC50 [3]: 155.84 ± 0.31 µg/mL | IC50 [4, 7]: 130 µM

CC1(C)CCC2(C(=O)OC3OC(CO)C(O)C(O)C3O)CCC3(C)C(=CCC4C5(C)CC(O)C(O)C(C)(C)C5CCC43C)C2C1O (stereo not drawn) [Compound 9, 24-deoxysericoside]
IC50 [1]: > 307 µM | IC50 [1, 8]: > 307 µM | IC50 [2, 5]: > 154 µM | IC50 [2, 6]: > 154 µM | IC50 ± SEM (α-glucosidase) [3]: >200 | α-Glucosidase IC50 [3]: >200 µg/mL | IC50 [4, 9]: > 154 µM | IC50 [4, 7]: > 154 µM

CC1(C)CC[C@]2(C(=O)O[C@@H]3O[C@H](CO)[C@@H](O)[C@H](O)[C@H]3O)CC[C@]3(C)C(=CC[C@@H]4[C@@]5(C)C[C@@H](O)[C@H](O)[C@@](C)(CO)[C@@H]5[C@H](O)C[C@]43C)[C@@H]2C1 [Compound 11, chebuloside II]
IC50 [1]: > 300 µM | IC50 [1, 8]: > 300 µM | IC50 [2, 5]: > 150 µM | IC50 [2, 6]: > 150 µM | IC50 ± SEM (α-glucosidase) [3]: >200 | α-Glucosidase IC50 [3]: >200 µg/mL | IC50 [4, 9]: > 150 µM | IC50 [4, 7]: > 150 µM

O=C(O)C1=C[C@@H](O)[C@@H](O)[C@H](O)C1 [Compound 6, shikimic acid]
IC50 [1]: > 1150 µM | IC50 [1, 8]: > 1150 µM | IC50 [2]: 337 µM | IC50 ± SEM (α-glucosidase) [3]: >200 | α-Glucosidase IC50 [3]: >200 µg/mL | IC50 [4, 7]: 317 µM

COc1cc2c(=O)oc3c(OC)c(O[C@@H]4OC[C@@H](O)[C@H](O)[C@H]4O)cc4c(=O)oc(c1OC)c2c34 [Compound 2, 3,3′,4′-tri-O-methyl ellagic acid-4-O-β-D-xylopyranoside]
IC50 [1]: 216 µM | IC50 [2, 5]: > 210 µM | IC50 [2, 6]: > 210 µM | IC50 ± SEM (α-glucosidase) [3]: 121.51 ± 0.65 | α-Glucosidase IC50 [3]: 121.51 ± 0.65 µg/mL | IC50 [4, 7]: 129 µM

CC1(C)CC[C@]2(C(=O)O[C@@H]3O[C@H](CO)[C@@H](O)[C@H](O)[C@H]3O)CC[C@]3(C)C(=CC[C@@H]4[C@@]5(C)C[C@@H](O)[C@H](O)[C@@](C)(CO)[C@@H]5CC[C@]43C)[C@@H]2[C@@H]1O [Compound 10, arjunglucoside I]
IC50 [1]: > 300 µM | IC50 [1, 8]: > 300 µM | IC50 [2, 5]: > 150 µM | IC50 [2, 6]: > 150 µM | IC50 ± SEM (α-glucosidase) [3]: >200 | α-Glucosidase IC50 [3]: >200 µg/mL | IC50 [4, 7]: 148 µM

COc1cc2c(=O)oc3c(OC)c(O[C@@H]4O[C@H](CO)[C@@H](O)[C@H](O)[C@H]4O)cc4c(=O)oc(c1OC)c2c34 [Compound 3, 3,3′,4′-tri-O-methyl ellagic acid-4-O-β-D-glucopyranoside]
IC50 [1]: 217 µM | IC50 [2, 6]: 149 µM | IC50 ± SEM (α-glucosidase) [3]: 137.51 ± 0.81 | α-Glucosidase IC50 [3]: 137.51 ± 0.81 µg/mL | IC50 [4, 7]: 118 µM

CC1(C)CC[C@]2(C(=O)O)CC[C@]3(C)C(=CC[C@@H]4[C@@]5(C)C[C@@H](O)[C@H](O)[C@@](C)(CO)[C@@H]5CC[C@]43C)[C@@H]2[C@@H]1O [Compound 7, arjungenin]
IC50 [1]: 369 µM | IC50 [2, 5]: > 198 µM | IC50 [2, 6]: > 198 µM | IC50 ± SEM (α-glucosidase) [3]: 192.17 ± 0.78 | α-Glucosidase IC50 [3]: 192.17 ± 0.78 µg/mL | IC50 [4, 7]: 106 µM

CC1OC(Oc2c(-c3cc(O)c(O)c(O)c3)oc3cc(O)cc(O)c3c2=O)C(O)C(O)C1O (stereo not drawn) [Compound 5, myricetin-3-O-rhamnoside]
IC50 [1]: 140 µM | IC50 [2]: > 215 µM | IC50 ([2]; read-out: IC50 ± SEM (Butyrylcholinesterase), Table 3, repeats Table 1, unit inferred): > 215 µM | IC50 ± SEM (α-glucosidase) [3]: 69.02 ± 0.65 | α-Glucosidase IC50 [3]: 69.02 ± 0.65 µg/mL | IC50 [4, 9]: > 215 µM | IC50 [4, 7]: > 215 µM

COc1c(O)cc2c(=O)oc3c(OC)c(O[C@@H]4O[C@H](CO)[C@@H](O)[C@H](O)[C@H]4O)cc4c(=O)oc1c2c34 [Compound 4, 3,3′-di-O-methyl ellagic acid-4-O-β-D-glucopyranoside]
IC50 [1]: 185 µM | IC50 [2, 6]: 182 µM | IC50 ± SEM (α-glucosidase) [3]: 97.75 ± 0.49 | α-Glucosidase IC50 [3]: 97.75 ± 0.49 µg/mL | IC50 [4, 7]: 129 µM

COc1c(O)cc2c(=O)oc3c(OC)c(O)cc4c(=O)oc1c2c34 [Compound 1, 3,3′-di-O-methyl ellagic acid]
IC50 [1]: 203 µM | IC50 [2, 6]: 153 µM | IC50 ± SEM (α-glucosidase) [3]: 74.18 ± 0.29 | α-Glucosidase IC50 [3]: 74.18 ± 0.29 µg/mL | IC50 [4, 7]: 142 µM
